{"source": "patent EP0171760A2", "about": "“Substituted phenoxypropylaminoethoxyphenoxyacetamides” (BEECHAM GROUP PLC, priority 1984, dated 1986)", "key": {"[1]": {"tested_on": "left ventricular pressure (LVP)", "experiment": "Assessment of inotropic activity in conscious cats", "type": "in vivo", "settings": "0.2 mg/kg p.o., gelatin capsule, recording 6 hours post dosing", "method": "Male 3-4.5 kg cats, bred in-house, are implanted with a polythene cannula in the left ventricle which is exte- riorised at the back of the neck by means of a small teflon valve. Recordings are made via a pressure transducer attached by means of a length of polyethylene tubing to the cat neck valve.\nDuring an initial 1 hour stabilisation period, steady baseline recordings are obtained. The test compound, contained in a gelatin capsule, is then administered orally. Recording is normally carried out for 6 hours post dosing.\nThe maximal percentage change in dp/dt over initial baseline level is used as the index of inotropic activity. Chronotropic activity is taken as the maximal percentage change in HR over initial baseline level."}, "[2]": {"tested_on": "electrically paced left atrium", "experiment": "Activity on isolated rat atria: tension of electrically paced left atrium", "design": "species or system Sprague-Dawley male rats", "settings": "32°C; for Emax: maximal effect with respect to isoprenaline maximum (isoprenaline 10^-7M = 1), Krebs solution, read-out: Tension Intrinsic activity; for EC50: molar concentration producing 50% of the compound's own maximum response", "method": "(§1) Sprague-Dawley male rats (300-400 g) are killed and the right and left atria dissected out independently and mounted on a combined tissue holder/electrode. The tissues are then immersed in a glass bath containing Krebs solution maintained at 32°C. The rate of the spontaneously beating right atrium (via an isometric transducer and a ratemeter) and the tension of the electrically paced left atrium (via an isometric transducer)are recorded on a M19 chart recorder.\n(§2) After an initial stabilization period, the tissues are exposed to a maximal concentration of isoprenaline (10^-7M). The tissues are then washed several times until rate and tension return to baseline level. A dose-response curve to the test compound is then carried out.\n(§3) Responses to each concentration of test compound are expressed as a percentage of the maximal responses to isoprenaline. Results are given in the form of (a) intrinsic activity (maximal effect of test compound with respect to isoprenaline maximum, i.e. isoprenaline intrinsic activity = 1) and (b) EC50 (the molar concentration at which the test compound produces 50% of its own maximum response)."}, "[3]": {"tested_on": "spontaneously beating right atrium", "experiment": "Activity on isolated rat atria: rate of spontaneously beating right atrium", "design": "species or system Sprague-Dawley male rats", "settings": "32°C; for Emax: maximal effect with respect to isoprenaline maximum (isoprenaline 10^-7M = 1), Krebs solution, read-out: Rate Intrinsic activity; for EC50: molar concentration producing 50% of the compound's own maximum response", "method": "as §1, §2, §3"}}}
{"smiles": "CNC(=O)COc1ccc(OCC(C)NCC(O)COc2ccc(O)cc2)cc1", "note": "(stereo not shown) [Example 1, N-methyl 4-[2-[3-(4-hydroxyphenoxy)-2-hydroxypropylamino]-2-methylethoxy]phenoxyacetamide]", "values": [{"measurement": "Peak HR", "setting": "[1]; maximal percentage change in HR over initial baseline (chronotropic activity)", "result": 0, "unit": "%"}, {"measurement": "Peak dp/dt", "setting": "[1]; maximal percentage change in dp/dt over initial baseline (inotropic activity)", "result": 22, "unit": "%"}, {"measurement": "Emax", "setting": "[2]", "result": 88, "unit": "%"}, {"measurement": "EC50", "setting": "[2]", "result": 25, "unit": "nM"}, {"measurement": "Emax", "setting": "[3]", "result": 94, "unit": "%"}, {"measurement": "EC50", "setting": "[3]", "result": 10, "unit": "nM"}]}
{"smiles": "CNC(=O)COc1ccc(OCCNCC(O)COc2ccc(O)cc2)cc1", "note": "(stereo not shown) [Example 2, N-methyl 4-[2-[3-(4-hydroxyphenoxy)-2-hydroxypropylamino]ethoxy]-phenoxyacetamide]", "values": [{"measurement": "Emax", "setting": "[2]", "result": 61, "unit": "%"}, {"measurement": "EC50", "setting": "[2]", "result": 150, "unit": "nM"}, {"measurement": "Emax", "setting": "[3]", "result": 77, "unit": "%"}, {"measurement": "EC50", "setting": "[3]", "result": 68, "unit": "nM"}]}
